The values that follow come from patent US20240010610A1, “COMPOUNDS FOR TREATING SEGMENTAL PROGEROID SYNDROMES” (Progelife, priority 2020, published 2024).

Where two headings read alike, the source gives them in different places. Marks after values point to notes of the source that are not given here. Where a SMILES comes first, the peptide text is derived from it. The star is where a group is joined. Cbz = O=C(OCc1ccccc1)*

Series [1] relates to HGPS fibroblast. The note with it: human, 72 h.
Description: (§1) Fibroblasts from HGPS donors from passage 18 to 24 were cultured in DMEM low glucose (Life Technologies, Courtabœuf, France) containing 15% FBS (Life Technologies), 2 mM L-glutamine (Life Technologies) and 100 U/mL penicillin-streptomycin (Life Technologies) at 37° C. in a humidified atmosphere containing 5% CO2.
(§2) All molecules were diluted in DMSO at 10 mM. Concentrations from 100 μM to 0.0001 nM were used to test cell viability in 96-well plates. Drug efficiency was evaluated in 6-well plates.
(§3) Assays were carried out in 96-well microplates. After 72 hours of treatment, the cells were washed once with 100 μL DPBS (no calcium, no magnesium). Then 100 μl of PrestoBlue solution (Life Technologies) diluted at 10% in DPBS was added to each well. Plates were incubated at 37° C. for 30 minutes. The fluorescence intensity was measured by multiwell plate reader (Glomax microplate reader, Promega, Charbonnières les Bains, France) using green filter (Excitation 525 nm/emission 580-640 nm). Fluorescence intensities values were pasted in Prism Software (Graph Pad, San Diego, CA) to perform a dose response analysis. CV25 correspond to drug concentrations at which HGPS fibroblast cell viability was 25%. CV75 correspond to drug concentrations at which HGPS fibroblast cell viability was 75%.
The test system of another series is progerin. The series is described as follows: Progerin expression by western blot, normalised to total protein (Revert protein stain). The class given is cell-based, human. The note with it: T=72 hours, mean of n=3 unless footnoted; for Mean decrease of progerin expression relative to DMSO control: compounds tested at CV25, HGPS cells; for Mean change of progerin expression relative to DMSO control: compounds tested at CV75, HGPS cells, decrease (−) or increase. The protocol:
All molecules were diluted in DMSO at 10 mM. […] Drug efficiency was evaluated in 6-well plates.
Total fibroblast proteins were extracted after 72 hours treatment in 100 μL of NP40 (Invitrogen) with 1× protease and phosphatase inhibitor cocktail (Life Technologies). Lysats were incubated on ice for 30 minutes, with vortexing at 10-minute intervals. Finally, they were sonicated four times (20 sec each) and then centrifuged at 13000 rpm for 10 minutes at 4° C.
Protein concentrations were determined with the BCA™ Protein Assay (Life Technologies).
Protein lysates were separated on Nupage Novex 4-12% Bis-Tris Midi precast gels (Life Technologies) and transferred to Immobilon-FL PVDF membranes (Millipore, Molsheim, France). Membranes were blocked for one hour in 1:1 diluted blocking buffer for near infrared fluorescent western blotting (Rockland, Le Perray, France). Blocked membranes were incubated with primary antibodies overnight at 4° C., following which they were washed and incubated with IR-Dye conjugated secondary antibodies for one hour at RT. Bound antibodies were detected and analyzed on an Odyssey imaging system (Li-COR Biosciences, Bad Homburg, Germany) according to the manufacturer's instructions. Revert Protein Stain (Li-COR Biosciences) was used as a total protein loading control in addition to two traditional protein loading control GAPDH and Actin. Progerin and SRSF1 levels were quantified and normalized by Revert staining using Image Studio Lite™ software developed by Li-COR.
The following antibodies were used in this study: rabbit monoclonal anti-lamin A/C (ab108922, 1/1000, Abcam, Amsterdam, Netherlands), rabbit monoclonal anti-SRSF1 (SF2) (ab129108, 1/1000, Abcam), mouse monoclonal anti-GAPDH (MAB374, 1/40000, Millipore, Molsheim, France) and mouse monoclonal anti-actin (MAB1501R, 1/10000, Millipore. Secondary antibodies conjugated with IR-Dye 800CW or 680 were used according to the manufacturer's instructions (926-32213 and 926-68072, 1/5000, Li-COR Biosciences).
Mean decrease of progerin expression (presented as a percentage of the concentration measured in DMSO control) with compounds tested at CV25, in HGPS cells at T=72 hours, determined by western blot analysis and normalised to the total amount of protein (Revert protein stain) (mean of n=3 (range)) is presented in the following Table 1:
Mean change (decrease (−) or increase) of progerin expression (presented as a percentage of the concentration measured in DMSO control) with compounds tested at CV75, in HGPS cells at T=72 hours, determined by western blot analysis and normalised to the total amount of protein (Revert protein stain) (mean of n=3 (range)) is presented in the following Table 2: […]
(In general: In western blotting, separated proteins are transferred to a membrane and probed.)

Series [2] has as its system HGPS fibroblast. The series is described as follows: Cell viability and assessment of toxicity (PrestoBlue, dose response). The note with it: 72 hours of treatment.
Description: as §1, §2, §3

In the series on HGPS fibroblast [1], `CC(C)C[C@@H](C=O)NC(=O)[C@H](CC(C)C)NC(=O)[C@H](CC(C)C)NC(=O)Cc1cccc(CC(=O)N[C@@H](CC(C)C)C(=O)N[C@@H](CC(C)C)C(=O)N[C@H](C=O)CC(C)C)c1` [Compound 14] came in with a CV25 of 0.589 µM and a CV75 of 0.155 µM. In addition, in the series on progerin, the “Mean decrease of progerin expression relative to DMSO control” value was found to be 66% and the “Mean change of progerin expression relative to DMSO control” value was −1%.
The compound `CC(C)C[C@@H](C=O)NC(=O)[C@H](CC(C)C)NC(=O)[C@H](CC(C)C)NC(=O)OCc1ccccc1` [Compound 1, Z-Leu-Leu-Leucinal, reference compound] (Cbz-Leu-Leu-Leu-aldehyde) returned a CV25 with HGPS fibroblast [2] (drug concentration at which HGPS fibroblast cell viability was 25%) of 0.270 µM. Also, the CV75 with HGPS fibroblast [2] (drug concentration at which HGPS fibroblast cell viability was 75%) was 0.137 µM. In the series on progerin, the “Mean decrease of progerin expression relative to DMSO control” value is recorded as 67* % and the “Mean change of progerin expression relative to DMSO control” value is −3* %.
For `CC(C)C[C@@H](C=O)NC(=O)[C@H](CC(C)C)NC(=O)[C@H](CC(C)C)NC(=O)c1cnccn1` [Compound 7], in the series with HGPS fibroblast [1], the CV25 was 5.5 µM and the CV75 was 2.1 µM. For the same compound, in the series with progerin, the “Mean decrease of progerin expression relative to DMSO control” value is 79% and the “Mean change of progerin expression relative to DMSO control” value is −36%.
The corresponding values for `CC(C)C[C@@H](/C=N/NC(N)=O)NC(=O)[C@H](CC(C)C)NC(=O)[C@H](CC(C)C)NC(=O)OCc1ccccc1` [Compound 16] are 1.750 µM, 0.195 µM, 66% and 0%.
For the compound `CC(C)C[C@@H](C=O)NC(=O)[C@H](CC(C)C)NC(=O)[C@H](CC(C)C)NC(=O)c1cc(Cl)ccc1Cl` [Compound 12], in the series on HGPS fibroblast [1], the CV25 came out at 0.063 µM and the CV75 came out at 0.001 µM. In the series with progerin, the “Mean decrease of progerin expression relative to DMSO control” value is listed as 61** % and the “Mean change of progerin expression relative to DMSO control” value is listed as −1** %.
For `CC(=O)N[C@@H](CC(C)C)C(=O)N[C@@H](CC(C)C)C(=O)N[C@H](C=O)CC(C)C` [Compound 3] (Ac-Leu-Leu-Leu-aldehyde), in that order: 1.800 µM, 0.720 µM, 71% and 0%.
For `CC(C)C[C@H](NC(=O)OCc1ccccc1)C(=O)N[C@@H](CC(C)C)C(=O)N[C@H](C(=O)N[C@H](C=O)Cc1ccc(O)cc1)C(C)C` [Compound 13] (Cbz-LLVY-aldehyde), in that order: 0.020 µM, 0.007 µM, 68*** % and −29*** %.
The corresponding values for `CC(C)C[C@@H](C=O)NC(=O)[C@H](Cc1ccccc1)NC(=O)[C@H](CC(C)C)NC(=O)OCc1ccccc1` [Compound 6, Z-Leucine-Phenylalanine-Leucinal] (Cbz-Leu-Phe-Leu-aldehyde) are 0.142 µM, 0.060 µM, 69% and 6%.
In the series with HGPS fibroblast [1], `CC(C)C[C@@H](C=O)NC(=O)[C@H](CC(C)C)NC(=O)[C@H](CC(C)C)NC(=O)Cc1ccc(F)cc1F` [Compound 8] came in with a CV25 of 0.152 µM and a CV75 of 0.073 µM. In the series on progerin, the “Mean decrease of progerin expression relative to DMSO control” value is recorded as 47% and the “Mean change of progerin expression relative to DMSO control” value is −16%.
As for `CC(C)C[C@@H](C=O)NC(=O)[C@H](CC(C)C)NC(=O)[C@H](Cc1ccccc1)NC(=O)OCc1ccccc1` [Compound 4, Z-Phenylalanine-Leucine-Leucinal] (Cbz-Phe-Leu-Leu-aldehyde), in the series with HGPS fibroblast [1], the CV25 came to 0.402 µM and the CV75 stood at 0.133 µM. Moreover, in the series with progerin, the “Mean decrease of progerin expression relative to DMSO control” value was determined as 70% and the “Mean change of progerin expression relative to DMSO control” value is reported as −12%.
